Measurements from patent publication US4894458A, “Quinolonecarboxylic acid derivatives and their preparation” (Kyorin Pharmaceutical Co., Ltd., priority 1986, dated 1990).
Converted amounts (≈) assume the structure as drawn.

Legend:
Type in all cases: cell-based
[1] = system: Bacillus subtilis PCI 219; assay: In vitro antibacterial activity (aerobic bacteria), MIC; conditions: PCI219
[2] = system: Acinetobacter anitratus IID 876; assay: as above; conditions: Acinetobacter calcoaceticus, IID876, Gram -, 10^6 cells/ml, read-out: MIC
Experimental: (§1) Minimal inhibitory concentrations (MICs) were determined in accordance with the method recommended by Japan Society of Chemotherapy.

E. coli ATCC 10536 = assay: as above; conditions: Escherichia coli, ATCC10536, Gram -, 10^6 cells/ml
Experimental: as §1

K. pneumoniae 1-220S = assay: as above; conditions: Klebsiella pneumoniae, 1220S, Gram -, 10^6 cells/ml
Experimental: as §1

[3] = system: Morganella morganii IID 602; assay: as above; conditions: Morganella morganii, IID602, Gram -, 10^6 cells/ml, read-out: MIC
Experimental: as §1

P. mirabilis IID 994 = assay: as above; conditions: Proteus mirabilis, IID994, Gram -, 10^6 cells/ml
Experimental: as §1

[4] = system: Proteus vulgaris IFO 3167; assay: as above; conditions: IFO3167, Gram -, 10^6 cells/ml
Experimental: as §1

[5] = system: Pseudomonas aeruginosa V-1; assay: as above; conditions: Pseudomonas aeruginosa, V1, aerobic; Gram -; 10^6 cells/ml; read-out: MIC
Experimental: as §1

[6] = system: S. aureus IID 670 (Terajima); assay: as above; conditions: Staphylococcus aureus, IID670, Gram +, 10^6 cells/ml
Experimental: as §1

S. epidermidis IID 866 = assay: as above; conditions: Staphylococcus epidermidis, IID866, Gram +, 10^6 cells/ml
Experimental: as §1

[7] = system: Serratia marcescens IID 618; assay: as above; conditions: IID618, Gram -, 10^6 cells/ml
Experimental: as §1

Shigella sonnei IID 969 = assay: as above; conditions: IID969, Gram -, 10^6 cells/ml
Experimental: as §1

[8] = system: Staphylococcus aureus 209 P; assay: as above; conditions: Gram +, 10^6 cells/ml
Experimental: as §1

[9] = system: Escherichia coli NIHJ JC-2; assay: as above; conditions: NIHJJC2, aerobic, Gram -, 10^6 cells/ml
[10] = system: Klebsiella pneumoniae KY(GN)6445; assay: as above
[11] = system: Enterobacter cloacae IID 977; assay: as above; conditions: IID977
[12] = system: Citrobacter freundii IID 976; assay: as above; conditions: Citrobacter freundii, IID976, aerobic; Gram -; 10^6 cells/ml
[13] = system: Salmonella enteritidis IID 604; assay: as above; conditions: Salmonella enterica
P. aeruginosa IFO 12689 = assay: as above; conditions: Pseudomonas aeruginosa, IFO12689
P. aeruginosa IID 1210 = assay: as above; conditions: Pseudomonas aeruginosa, IID1210, aerobic; Gram -; 10^6 cells/ml
P. cepacia GIFU 518 = assay: as above; conditions: Burkholderia cepacia, GIFU518
P. maltophilia GIFU 2491 = assay: as above; conditions: Stenotrophomonas maltophilia, GIFU2491
[14] = system: Yersinia enterocolitica IID 981; assay: microbe, parasite or virus in culture; conditions: IID981
[15] = system: Alcaligenes faecalis 0114002; assay: In vitro antibacterial activity (aerobic bacteria), MIC; conditions: Alcaligenes faecalis, 0114002, aerobic; Gram -; 10^6 cells/ml
[16] = system: Bacteroides fragilis GM 7000; assay: In vitro antibacterial activity (anaerobic bacteria), MIC; conditions: GM7000
B. fragilis 0558 = assay: as above; conditions: Bacteroides fragilis
B. fragilis 25285 = assay: as above; conditions: Bacteroides fragilis
B. distasonis 8503 = assay: as above; conditions: Parabacteroides distasonis, Gram -, 10^6 cells/ml
[17] = system: B. thetaiotaomicron (0661); assay: as above; conditions: Bacteroides thetaiotaomicron
F. varium KYA 8501 = assay: as above; conditions: Fusobacterium varium, KYA8501
[18] = system: Eubacterium lentum GAI 5242; assay: as above; conditions: Eggerthella lenta, GAI5242
[19] = system: Propionibacterium acens 11828; assay: as above
[20] = system: Peptococcus magnus KY 017; assay: as above; conditions: Finegoldia magna, KY017, Gram +, 10^6 cells/ml, read-out: MIC
Experimental: as §1

[21] = system: Clostridium difficile I-E; assay: as above; conditions: Clostridioides difficile
C. perfringens KYA 13123 = assay: microbe, parasite or virus in culture; conditions: Clostridium perfringens, KYA13123
C. ramosum = assay: In vitro antibacterial activity (anaerobic bacteria), MIC; conditions: Thomasclavelia ramosa; anaerobic; Gram +; 10^6 cells/ml
[22] = system: Peptostreptococcus anaerobius KYA 27337; assay: as above; conditions: KYA27337
Pst micros UPI 5464-1 = assay: microbe, parasite or virus in culture
[23] = system: Veillonella parvula KYA 10790; assay: In vitro antibacterial activity (anaerobic bacteria), MIC; conditions: KYA10790

Compound | MIC [1] [µg/mL] | MIC [2] [µg/mL] | MIC (E. coli ATCC 10536) [µg/mL] | MIC (K. pneumoniae 1-220S) [µg/mL] | MIC [3] [µg/mL] | MIC (P. mirabilis IID 994) [µg/mL] | MIC [4] [µg/mL] | MIC [5] [µg/mL] | MIC [6] [µg/mL] | MIC (S. epidermidis IID 866) [µg/mL] | MIC [7] [µg/mL] | MIC (Shigella sonnei IID 969) [µg/mL] | MIC [8] [µg/mL] | MIC [9] [µg/mL] | MIC [10] [µg/mL] | MIC [11] [µg/mL] | MIC [12] [µg/mL] | MIC [13] [µg/mL] | MIC (P. aeruginosa IFO 12689) [µg/mL] | MIC (P. aeruginosa IID 1210) [µg/mL] | other results
Cc1c(N2C[C@@H](C)[C@H](N)C2)c(F)cc2c(=O)c(C(=O)O)cn(C3CC3)c12 (relative stereo) [Ex. 27, 7-(3,4-trans-3-Amino-4-methyl-1-pyrrolidinyl)-1-cyclopropyl-6-fluoro-1,4-dihydro-8-methyl-4-oxo-3-quinolinecarboxylic acid] | 0.0125 (≈ 0.0348 µM) | 0.025 (≈ 0.0696 µM) | 0.0063 (≈ 0.0175 µM) | 0.025 (≈ 0.0696 µM) | 0.05 (≈ 0.139 µM) | 0.025 (≈ 0.0696 µM) | 0.0063 (≈ 0.0175 µM) | 0.2 (≈ 0.556 µM) | 0.025 (≈ 0.0696 µM) | 0.05 (≈ 0.139 µM) | 0.05 (≈ 0.139 µM) | 0.0063 (≈ 0.0175 µM) | 0.025 (≈ 0.0696 µM) | 0.0063 (≈ 0.0175 µM) | 0.0125 (≈ 0.0348 µM) | 0.025 (≈ 0.0696 µM) | 0.0063 (≈ 0.0175 µM) | 0.025 (≈ 0.0696 µM) | 0.39 (≈ 1.09 µM) | 0.39 (≈ 1.09 µM) | MIC (P. cepacia GIFU 518): 0.2 µg/mL (≈ 0.556 µM); MIC (P. maltophilia GIFU 2491): 0.05 µg/mL (≈ 0.139 µM); MIC [14]: 0.025 µg/mL (≈ 0.0696 µM); MIC [15]: 0.1 µg/mL (≈ 0.278 µM); MIC [16]: 0.1 µg/mL (≈ 0.278 µM); MIC (B. fragilis 0558): 0.05 µg/mL (≈ 0.139 µM); MIC (B. fragilis 25285): 0.05 µg/mL (≈ 0.139 µM); MIC (B. distasonis 8503): 0.39 µg/mL (≈ 1.09 µM); MIC [17]: 0.2 µg/mL (≈ 0.556 µM); MIC (F. varium KYA 8501): 0.78 µg/mL (≈ 2.17 µM); MIC [18]: 0.05 µg/mL (≈ 0.139 µM); MIC [19]: 0.78 µg/mL (≈ 2.17 µM); MIC [20]: 0.025 µg/mL (≈ 0.0696 µM); MIC [21]: 0.39 µg/mL (≈ 1.09 µM); MIC (C. perfringens KYA 13123): 0.1 µg/mL (≈ 0.278 µM); MIC (C. ramosum): 0.39 µg/mL (≈ 1.09 µM); MIC [22]: 0.2 µg/mL (≈ 0.556 µM); MIC (Pst micros UPI 5464-1): 0.05 µg/mL (≈ 0.139 µM); MIC [23]: 0.1 µg/mL (≈ 0.278 µM)
Cc1c(N2C[C@@H](C)[C@@H](N)C2)c(F)cc2c(=O)c(C(=O)O)cn(C3CC3)c12 (relative stereo) [Ex. 28, 7-(3,4-cis-3-Amino-4-methyl-1-pyrrolidinyl)-1-cyclopropyl-6-fluoro-1,4-dihydro-8-methyl-4-oxo-3-quinolinecarboxylic acid] | 0.0125 (≈ 0.0348 µM) | 0.05 (≈ 0.139 µM) | 0.0063 (≈ 0.0175 µM) | 0.05 (≈ 0.139 µM) | 0.025 (≈ 0.0696 µM) | 0.025 (≈ 0.0696 µM) | 0.0063 (≈ 0.0175 µM) | 0.1 (≈ 0.278 µM) | 0.025 (≈ 0.0696 µM) | 0.05 (≈ 0.139 µM) | 0.05 (≈ 0.139 µM) | 0.0063 (≈ 0.0175 µM) | 0.025 (≈ 0.0696 µM) | 0.0063 (≈ 0.0175 µM) | 0.0125 (≈ 0.0348 µM) | 0.025 (≈ 0.0696 µM) | 0.0125 (≈ 0.0348 µM) | 0.025 (≈ 0.0696 µM) | 0.39 (≈ 1.09 µM) | 0.39 (≈ 1.09 µM) | MIC (P. cepacia GIFU 518; aerobic, Gram -, 10^6 cells/ml): 0.39 µg/mL (≈ 1.09 µM); MIC (P. maltophilia GIFU 2491): 0.1 µg/mL (≈ 0.278 µM); MIC [14]: 0.0125 µg/mL (≈ 0.0348 µM); MIC [15]: 0.1 µg/mL (≈ 0.278 µM); MIC [16]: 0.2 µg/mL (≈ 0.556 µM); MIC (B. fragilis 0558): 0.1 µg/mL (≈ 0.278 µM); MIC (B. fragilis 25285): 0.1 µg/mL (≈ 0.278 µM); MIC (B. distasonis 8503): 0.39 µg/mL (≈ 1.09 µM); MIC [17]: 0.2 µg/mL (≈ 0.556 µM); MIC (F. varium KYA 8501): 0.78 µg/mL (≈ 2.17 µM); MIC [18]: 0.05 µg/mL (≈ 0.139 µM); MIC [19]: 0.78 µg/mL (≈ 2.17 µM); MIC [20]: 0.025 µg/mL (≈ 0.0696 µM); MIC [21]: 0.39 µg/mL (≈ 1.09 µM); MIC (C. perfringens KYA 13123): 0.1 µg/mL (≈ 0.278 µM); MIC (C. ramosum): 0.78 µg/mL (≈ 2.17 µM); MIC [22]: 0.2 µg/mL (≈ 0.556 µM); MIC (Pst micros UPI 5464-1): 0.05 µg/mL (≈ 0.139 µM); MIC [23]: 0.1 µg/mL (≈ 0.278 µM)
